Results: the supplement of paper PMC10307832

How the values were obtained:
Assay in all cases: relative viability (nuclei count vs DMSO), 5 days (fraction); higher = more cells survive
[1] = compound: C1=CC2=C(C=C(C(=C2N=C1)O)N=NC3=CC4=C(C=C3)C=C(C=C4)S(=O)(=O)O)S(=O)(=O)O + Cc1nc(Nc2ncc(C(=O)Nc3c(C)cccc3Cl)s2)cc(N2CCN(CCO)CC2)n1 [Dasatinib] (partner 0.075 µM)
Summary of the method: (§1)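 Cells from lung cancer lines were seeded into 1536-well plates and, one day later, dosed by pin tool. Treatments were either a single drug or a fixed dose of an anchor drug with five library-drug doses (not always all listed) in √10 steps. After 5 days, nuclei were stained in a one-step fixation (final 0.05% Triton X-100, 1% formaldehyde, 1 ug/ml Hoechst) and counted on 4× images, and relative viability is the treated-to-vehicle nuclei ratio, as the median of duplicate plates.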

AT-7519 + Foretinib = compound: O=C(NC1CCNCC1)c1n[nH]cc1NC(=O)c1c(Cl)cccc1Cl [AT-7519] + COc1cc2c(Oc3ccc(NC(=O)C4(C(=O)Nc5ccc(F)cc5)CC4)cc3F)ccnc2cc1OCCCN1CCOCC1 [Foretinib] (partner 0.25 µM)
Summary of the method: as §1

[2] = compound: C1=CC2=C(C=C(C(=C2N=C1)O)N=NC3=CC4=C(C=C3)C=C(C=C4)S(=O)(=O)O)S(=O)(=O)O + CC(C)C[C@H](NC(=O)[C@H](Cc1ccccc1)NC(=O)c1cnccn1)B(O)O [Bortezomib] (partner 0.002 µM)
Summary of the method: as §1

AT-7519 + Trametinib = compound: O=C(NC1CCNCC1)c1n[nH]cc1NC(=O)c1c(Cl)cccc1Cl [AT-7519] + CC(=O)Nc1cccc(-n2c(=O)n(C3CC3)c(=O)c3c(Nc4ccc(I)cc4F)n(C)c(=O)c(C)c32)c1 [Trametinib] (partner 0.02 µM)
Summary of the method: as §1

| Cell Line | relative viability ([1]; first compound 0.08 µM) | relative viability ([1]; first compound 0.253 µM) | relative viability ([1]; first compound 0.8 µM) | relative viability ([1]; first compound 2.53 µM) | relative viability ([1]; first compound 8 µM) | relative viability (AT-7519 + Foretinib; first compound 0.01 µM) | relative viability (AT-7519 + Foretinib; first compound 0.03162 µM) | relative viability (AT-7519 + Foretinib; first compound 0.3162 µM) | relative viability (AT-7519 + Foretinib; first compound 1 µM) | relative viability ([2]; first compound 0.08 µM) | relative viability ([2]; first compound 0.253 µM) | relative viability ([2]; first compound 0.8 µM) | relative viability ([2]; first compound 2.53 µM) | relative viability ([2]; first compound 8 µM) | relative viability (AT-7519 + Trametinib; first compound 0.01 µM) | relative viability (AT-7519 + Trametinib; first compound 0.03162 µM) | relative viability (AT-7519 + Trametinib; first compound 0.3162 µM) | relative viability (AT-7519 + Trametinib; first compound 1 µM) |
| --- | --- | --- | --- | --- | --- | --- | --- | --- | --- | --- | --- | --- | --- | --- | --- | --- | --- | --- |
| ChaGo-K-1 | 0.648 | 0.595 | 0.599 | 0.481 | 0.335 | 0.931 | 0.845 | 0.967 | 0.733 | 1.05 | 1.03 | 0.986 | 0.958 | 0.557 | 0.949 | 0.884 | 0.936 | 0.795 |
| NCI-H1650 | 0.34 | 0.315 | 0.338 | 0.332 | 0.227 | 1.15 | 1.12 | 0.914 | 0.295 | 0.196 | 0.212 | 0.22 | 0.193 | 0.202 | 0.634 | 0.538 | 0.449 | 0.223 |
| NCI-H2009 | 0.261 | 0.275 | 0.288 | 0.313 | 0.283 | 1.33 | 1.18 | 1.27 | 0.686 | 0.909 | 0.921 | 0.965 | 0.968 | 0.916 | 0.306 | 0.287 | 0.25 | 0.181 |
| LOU-NH91 | 0.579 | 0.585 | 0.53 | 0.597 | 0.508 | 0.876 | 0.943 | 0.976 | 0.821 | 0.504 | 0.477 | 0.51 | 0.498 | 0.496 | 0.805 | 0.774 | 0.792 | 0.726 |
| NCI-H2405 | 0.146 | 0.226 | 0.208 | 0.201 | 0.219 | 1.04 | 1.11 | 1.01 | 0.628 | 1.04 | 0.952 | 0.979 | 0.935 | 0.4 | 0.664 | 0.643 | 0.61 | 0.299 |
| LCLC-97TM1 | 0.705 | 0.842 | 0.691 | 0.779 | 0.865 | 0.859 | 0.946 | 0.817 | 0.437 | 0.815 | 0.492 | 0.525 | 0.753 | 0.395 | 0.175 | 0.173 | 0.224 | 0.117 |
| NCI-H596 | 0.651 | 0.685 | 0.554 | 0.727 | 0.703 | 0.922 | 0.834 | 0.897 | 0.731 | 1.43 | 1.16 | 0.974 | 1.02 | 0.769 | 0.86 | 0.811 | 0.662 | 0.662 |
| NCI-H727 | 0.454 | 0.39 | 0.352 | 0.412 | 0.345 | 1.14 | 0.691 | 0.769 | 0.297 | 0.917 | 0.945 | 0.854 | 0.853 | 0.816 | 0.34 | 0.414 | 0.37 | 0.384 |
| H3255 | 0.346 | 0.375 | 0.297 | 0.34 | 0.477 | 0.901 | 0.876 | 0.906 | 0.794 | 0.719 | 0.685 | 0.802 | 0.875 | 0.741 | 0.53 | 0.546 | 0.715 | 0.574 |
| NCI-H1437 | 0.351 | 0.402 | 0.43 | 0.383 | 0.301 | 1.3 | 1.32 | 1.24 | 1.01 | 0.578 | 0.509 | 0.483 | 0.414 | 0.4 | 0.532 | 0.503 | 0.507 | 0.214 |
| LU99A | 0.496 | 0.496 | 0.474 | 0.555 | 0.514 | 0.873 | 0.771 | 0.801 | 0.556 | 1.27 | 1.13 | 1.04 | 0.986 | 1.29 | 0.67 | 0.53 | 0.52 | 0.24 |
| HCC-827 | 0.306 | 0.294 | 0.244 | 0.261 | 0.272 | 1.03 | 0.991 | 1.03 | 0.964 | 1.06 | 0.95 | 0.948 | 1.02 | 1.03 | 0.488 | 0.519 | 0.542 | 0.28 |
| HCC-366 | 0.765 | 0.661 | 0.654 | 0.649 | 0.637 | 0.994 | 0.896 | 0.941 | 0.717 | 1.03 | 1.03 | 1.02 | 1.13 | 0.985 | 0.323 | 0.281 | 0.316 | 0.17 |
| BEN | 0.25 | 0.31 | 0.296 | 0.347 | 0.322 | 0.719 | 0.636 | 0.922 | 0.8 | 0.967 | 0.75 | 0.776 | 0.875 | 0.873 | 0.99 | 1.04 | 0.885 | 1.11 |
| NCI-H23 | 0.922 | 0.877 | 0.702 | 0.95 | 0.927 | 0.928 | 0.981 | 0.887 | 0.461 | 1.06 | 0.82 | 1.08 | 1.06 | 0.897 | 0.338 | 0.355 | 0.33 | 0.164 |
| 201T | 0.627 | 0.56 | 0.584 | 0.619 | 0.677 | 1.2 | 1.05 | – | 0.809 | 1.09 | 1.1 | 1.07 | 1.11 | 1 | 0.731 | 0.798 | 0.684 | 0.64 |
| NCI-H460 | 0.515 | 0.536 | 0.492 | 0.489 | 0.522 | 1.05 | 0.821 | 1.05 | 0.233 | 1.39 | 1.04 | 0.99 | 1.19 | 1.09 | 0.193 | 0.155 | 0.129 | 0.0266 |
| NCI-H661 | 0.938 | 0.877 | 0.903 | 0.93 | 0.817 | 1.05 | 0.875 | 1.05 | 0.468 | 0.838 | 0.838 | 0.769 | 0.829 | 0.809 | 0.549 | 0.565 | 0.508 | 0.203 |
